Earlier results, collected in patent US9023888B2, “Composition of monoterpenoids having bactericidal properties” (priority 2011, dated 2015).

Columns and labels:
[1] = tested on: E. coli; settings: for E. coli MBC (v/v %) / E. coli MBC ppm / E. coli MIC (v/v %) / E. coli MIC ppm: broth dilution
[2] = tested on: Staph. aureus; settings: broth dilution

Structure (SMILES) | E. coli MBC (v/v %) [1] | E. coli MBC ppm [1] | E. coli MIC (v/v %) [1] | E. coli MIC ppm [1] | Staph. aureus MBC (v/v %) [2] | Staph. aureus MBC ppm [2] | Staph. aureus MIC (v/v %) [2] | Staph. aureus MIC ppm [2] | antibacterial activity (summary of Table 2 in words) ([1]; E. coli and Staph. aureus data of Table 2)
CC1=CCC(C(C)(C)O)CC1 (centres unmarked) [∝-terpineol] | 0.06 v/v % | 600 ppm | 0.06 v/v % | 600 ppm | 0.25 v/v % | 2500 ppm | 0.25 v/v % | 2500 ppm | –
Cc1ccc(C(C)C)cc1 [p-cymene] | >8.0 v/v % | No level | >8.0 v/v % | No level | >8.0 v/v % | No level | >8.0 v/v % | No level | no effect at all
